Key:
[1] = Quantitative sensory evaluation test of kokumi-imparting activity; set-up: species or system human; settings: for Intensity of kokumi After taste / Intensity of kokumi First-middle taste: score control 0, strong 3, very strong 5, n=4
Experimental: The kokumi-imparting effects can be confirmed by the method such as a gustatory test by a human being as mentioned in Examples of the present invention, but it is not limited to those.
On compounds wherein a calcium receptor activating action was found (sodium salts of Compound Nos. 1, 7 and 21), the intensity of kokumi-imparting activity was examined by a quantitative sensory evaluation test. The used compound was prepared by dissolving 525 mg of the compound No. 1 described in Synthetic Example 1 of Example I in 5 mL of distilled water, adjusting it to pH6.5 to 7 by adding 16.4 mL of 0.1M sodium hydroxide solution thereto, and freeze-drying it to obtain a sodium salt thereof. Further, the used compound was also prepared as follows. 500 mg of the compound No. 7 described in Synthetic Example 7 of Example I was suspended in 5 mL of distilled water. 1.61 mL of 1M sodium hydroxide and 0.8 mL of 2M hydrochloric acid were added thereto at 0° C. respectively to precipitate a solid substance. The precipitated solid substance was taken by filtration and dried under reduced pressure at 40° C. to obtain 426 mg of the compound No. 7. The obtained solid substance was suspended in 10 mL of distilled water. 1.2 mL of 1M sodium hydroxide was added thereto and freeze-dried to obtain a sodium salt thereof. The compound No. 21 was used in the form of a sodium salt of the compound No. 21 described in Synthetic Example 21 of Example I, which was prepared by the same method as mentioned above.
A quantitative sensory evaluation test was conducted as follows. 0.000001 to 0.1 g/dL of the compound(s) (a sodium salt of No. 1) was mixed as a sample to distilled water containing glutamic sodium (0.05 g/dL), inosine monophosphate (0.05 g/dL) and sodium chloride (0.5 g/dL). Then, the intensity of kokumi-imparting activity was examined at that time. As a reference, γ Glu-Cys-Gly and γ Glu-Val-Gly were used, each of which is a known kokumi-imparting component. As for a sample that becomes acidic to an additive-free control after dissolving the sample, it was used by being adjusted with sodium hydroxide to become within pH±0.2 to the additive-free control. As for sensory scoring, it was defined as a control: 0, strong: 3, and very strong: 5; and n=4. Meanwhile, “first-middle taste” means the taste combining first taste and middle taste. The kokumi-imparting activity was widely seen in the above addition concentrations, and the results of the representative concentrations are shown in Table 5.

human CaSR = molecular target: T1, human CaSR (Homo sapiens, UniProt P41180, E1011Q); assay: Evaluation of CaSR agonistic activity (293E cells transfected with hCaSR, Ca2+ fluorescent indicator, FLIPR); format: cell-based; settings: 293E cells expressing human CaSR; concentration giving activation rate 50%
T1 construct: expressed in transfected cells; host or cells: 293E cells (HEK293 expressing EBNA1, ATCC CRL-10852), transient transfection of hCaSR/pcDNA3.1
T1 sequence (P41180 20-1078 E1011Q): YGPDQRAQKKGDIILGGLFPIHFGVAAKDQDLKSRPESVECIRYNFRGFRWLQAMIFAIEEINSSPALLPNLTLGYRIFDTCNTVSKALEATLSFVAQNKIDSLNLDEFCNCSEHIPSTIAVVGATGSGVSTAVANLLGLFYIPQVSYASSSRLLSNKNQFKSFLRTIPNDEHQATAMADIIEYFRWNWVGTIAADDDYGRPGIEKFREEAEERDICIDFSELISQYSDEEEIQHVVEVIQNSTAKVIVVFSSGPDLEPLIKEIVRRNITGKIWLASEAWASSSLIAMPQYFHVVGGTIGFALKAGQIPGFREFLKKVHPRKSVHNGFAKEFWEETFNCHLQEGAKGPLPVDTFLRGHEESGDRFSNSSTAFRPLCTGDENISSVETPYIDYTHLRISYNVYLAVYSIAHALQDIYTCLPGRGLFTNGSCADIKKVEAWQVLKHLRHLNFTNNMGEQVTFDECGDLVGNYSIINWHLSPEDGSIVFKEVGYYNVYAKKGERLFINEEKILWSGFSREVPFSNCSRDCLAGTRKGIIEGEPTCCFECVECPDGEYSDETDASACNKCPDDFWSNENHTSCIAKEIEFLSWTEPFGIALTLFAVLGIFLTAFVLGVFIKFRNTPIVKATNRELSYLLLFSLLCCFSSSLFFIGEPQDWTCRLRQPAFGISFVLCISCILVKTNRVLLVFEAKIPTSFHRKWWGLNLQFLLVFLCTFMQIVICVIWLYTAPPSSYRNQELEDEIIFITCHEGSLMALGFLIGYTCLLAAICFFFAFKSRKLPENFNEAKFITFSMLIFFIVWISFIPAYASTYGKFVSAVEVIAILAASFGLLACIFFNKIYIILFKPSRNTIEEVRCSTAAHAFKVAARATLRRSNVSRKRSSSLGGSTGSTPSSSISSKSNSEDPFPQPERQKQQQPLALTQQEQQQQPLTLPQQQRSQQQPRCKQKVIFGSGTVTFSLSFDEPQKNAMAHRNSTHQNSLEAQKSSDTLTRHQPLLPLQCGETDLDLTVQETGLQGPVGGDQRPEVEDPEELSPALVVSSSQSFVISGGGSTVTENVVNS
Experimental: 293E cells (HEK293 cell expressing EBNA1, ATCC No. CRL-10852) were cultured in DMEM containing 10% fetal bovine serum (Dulbecco's modified Eagle medium containing […] Glucose, by NACALAI TESQUE, INC.), in the presence of 250 μg/mL of G418. The cells were spread on a petri dish of 10 cm diameter in 1.8×10^6 cells/15 mL. After leaving them in the CO2 incubator (5% CO2, 37° C.) for 24 hours, plasmid expressing human CaSR: hCaSR/pcDNA3.1 was transfected with a transfection reagent: Mirus TransIT 293 (by Takara Bio Inc.). After leaving it in the CO2 incubator for 24 hours, the cells were collected by DMEM containing 10% fetal bovine serum and seeded on poly-D-lysine coat 384 well plate (by Falcon) in 15,000 cells/well. After leaving them in the CO2 incubator for 24 hours, the medium was removed. Then, 50 μL/well of Ca^2+ fluorescent indicator: Calcium 4 Assay Kit (by Molecular Devices) that was dissolved in an assay buffer (146 mM NaCl, 5 mM KCl, 1 mM MgSO4, 1 mg/mL Glucose, 20 mM HEPES (pH 7.2), 1.5 mM CaCl2) was added thereto, and left at 37° C. for 1 hour and at room temperature for 30 minutes to absorb the fluorescent indicator. The 384 well plate was transferred to FLIPR (by Molecular Devices). Then, 12.5 μL/well of a compound that was dissolved in a 0.1% BSA containing assay buffer was added thereto, and change in fluorescence intensity was measured for 3 minutes. Meanwhile, Compound No. 20 was purchased from Bachem.
The difference between the maximum value and the minimum value (RFU(Max−Min)) of the fluorescence intensity before and after adding a compound was automatically calculated by FLIPR. RFU(Max−Min) when adding a compound in maximum concentration was defined as 100%; and RFU(Max−Min) when adding DMSO instead of the compound in the same concentration as that of the compound was defined as 0%.

rat large intestine loop = assay: Effect of a CaSR agonist on water absorption in rat large intestine loop method (PGE2-treated); format: in vivo; settings: male SD (IGS) rat large intestine loop, PGE2 i.p.; compound in Tyrode solution
Experimental: The cecum and large intestine were taken out from the abdomen of a male SD (IGS) rat under pentobarbital anesthesia, and a large intestine loop was prepared by ligating a part 5 cm just below the cecum. Immediately after preparing the loop, PGE2 (4 μg/mL/kg, SIGMA) was intraperitoneally administered. 30 minutes later, 2 mL of Tyrode solution (NaCl 136.9 mM, KCl 2.7 mM, CaCl2.2H2O 1.8 mM, MgCl2.6H2O 1.04 mM, NaH2PO4.2H2O 0.04 mM, glucose 5.55 mM, NaHCO3 11.9 mM) was poured in the prepared loop. 1 hour later, the weight of the loop, the weight thereof when the liquid was removed from the loop, and the loop area were measured to calculate the weight per unit area of the liquid that remains in the loop.
A test compound was tested by dissolving it in Tyrode solution that was adjusted to pH 6.5 to 7.5.
The remaining liquid weight per unit area (g/cm^2) was calculated by the following formula. Remaining liquid weight per unit area (g/cm^2)=(loop weight−loop weight when the liquid was removed from the loop)/loop area
Water absorption was evaluated by calculating the inhibition ratio by the following formula. Inhibition ration (%)=100−(remaining liquid weight per unit area with a drug−basic average remaining liquid weight per unit area)/(average remaining liquid weight per unit area of vehicle−basic average remaining liquid weight per unit area)×100 […]

In the case of `N[C@@H](CCC(=O)Nc1cc(Cl)cc(S(=O)(=O)[O-])c1O)C(=O)O.[Na+]` [No.7-Na salt], the “Intensity of kokumi After taste” value ([1]; Conc. 0.00005 g/dL) is reported as 2.5, the “Intensity of kokumi First-middle taste” value ([1]; Conc. 0.00005 g/dL) is reported as 2.2 and the Comments ([1]; Conc. 0.0001 g/dL) is reported as “There is about the same thickness”. The “Intensity of kokumi After taste” value ([1]; Conc. 0.0001 g/dL) was 3.2, the “Intensity of kokumi First-middle taste” value ([1]; Conc. 0.0001 g/dL) was 2.5 and the “Intensity of kokumi After taste” value ([1]; Conc. 0.0005 g/dL) was 4.0. The “Intensity of kokumi First-middle taste” value ([1]; Conc. 0.0005 g/dL) was 3.3.

With “γ Glu-Val-Gly [γGlu-Val-Gly, reference compound]” the Comments ([1]; Conc. 0.001 g/dL) was “Mellowness, richness and growth”, the “Intensity of kokumi After taste” value ([1]; Conc. 0.001 g/dL) was 3.0 and the “Intensity of kokumi First-middle taste” value ([1]; Conc. 0.001 g/dL) was 2.5. For the same compound, the Comments ([1]; Conc. 0.005 g/dL) was “Mellowness, richness and growth”, the “Intensity of kokumi After taste” value ([1]; Conc. 0.005 g/dL) was 4.0 and the “Intensity of kokumi First-middle taste” value ([1]; Conc. 0.005 g/dL) was 3.5.

With `N[C@@H](CCC(=O)Nc1cccc(S(=O)(=O)[O-])c1)C(=O)O.[Na+]` [No.1-Na salt] the “Intensity of kokumi After taste” value ([1]; Conc. 0.00001 g/dL) was 1.0, the “Intensity of kokumi First-middle taste” value ([1]; Conc. 0.00001 g/dL) was 0.7 and the “Intensity of kokumi After taste” value ([1]; Conc. 0.0001 g/dL) was 2.0. The “Intensity of kokumi First-middle taste” value ([1]; Conc. 0.0001 g/dL) was 1.8, the “Intensity of kokumi After taste” value ([1]; Conc. 0.0005 g/dL) was 3.0 and the “Intensity of kokumi First-middle taste” value ([1]; Conc. 0.0005 g/dL) was 2.6. For the same compound, the Comments ([1]; Conc. 0.001 g/dL) was “All tastes are strong, mainly”, the “Intensity of kokumi After taste” value ([1]; Conc. 0.001 g/dL) was 3.6 and the “Intensity of kokumi First-middle taste” value ([1]; Conc. 0.001 g/dL) was 3.2. For the same compound, the Comments ([1]; Conc. 0.01 g/dL) was “All tastes are strong”, the “Intensity of kokumi After taste” value ([1]; Conc. 0.01 g/dL) was 5.0 and the “Intensity of kokumi First-middle taste” value ([1]; Conc. 0.01 g/dL) was 5.0.

For `N[C@@H](CCC(=O)Nc1cc(Cl)cc(S(=O)(=O)O)c1O)C(=O)O` [Compound No. 7, N^5-(5-chloro-2-hydroxy-3-sulfophenyl)-L-glutamine], the EC50 (human CaSR) was 1.9 nM and the Water absorption (rat large intestine loop) was “promoted in a dose-dependent manner”.

For “γ Glu-Cys-Gly [γGlu-Cys-Gly, reference compound]”, the Comments ([1]; Conc. 0.01 g/dL) was “Richness, thickness and continuity”, the “Intensity of kokumi After taste” value ([1]; Conc. 0.01 g/dL) was 3.0 and the “Intensity of kokumi First-middle taste” value ([1]; Conc. 0.01 g/dL) was 3.0.

In the case of `Cc1c(Cl)cc(NC(=O)CC[C@H](N)C(=O)O)cc1S(=O)(=O)[O-].[Na+]` [No.21-Na salt], the “Intensity of kokumi After taste” value ([1]; Conc. 0.0002 g/dL) is reported as 2.0, the “Intensity of kokumi First-middle taste” value ([1]; Conc. 0.0002 g/dL) is reported as 1.5 and the “Intensity of kokumi After taste” value ([1]; Conc. 0.0005 g/dL) is reported as 3.1. The “Intensity of kokumi First-middle taste” value ([1]; Conc. 0.0005 g/dL) was 2.6, the “Intensity of kokumi After taste” value ([1]; Conc. 0.001 g/dL) was 3.7 and the “Intensity of kokumi First-middle taste” value ([1]; Conc. 0.001 g/dL) was 3.1.

With `N[C@@H](CCC(=O)Nc1cccc(S(=O)(=O)O)c1)C(=O)O` [Compound No. 1, N^5-(3-sulfophenyl)-L-glutamine] the EC50 (human CaSR) was 12 nM and the Water absorption (rat large intestine loop) was “promoted in a dose-dependent manner”.

For `N[C@@H](CCC(=O)Nc1cccc(C(=O)O)c1O)C(=O)O` [Compound No. 15, 3-(L-γ-glutamylamino)-2-hydroxybenzoic acid], the EC50 (human CaSR) was 34 nM.

In the case of `N[C@@H](CCC(=O)Nc1cc(O)cc(C(=O)O)c1)C(=O)O` [Compound No. 30, 5-hydroxy-3-(L-γ-glutamylamino)benzoic acid], the EC50 (human CaSR) is reported as 2900 nM.

Compound `Cc1c(NC(=O)CC[C@H](N)C(=O)O)cccc1C(=O)O` [Compound No. 31, 3-(L-γ-glutamylamino)-2-methyl-benzoic acid] has an EC50 (human CaSR) of 3700 nM.

Source: patent publication US9174932B2, “CaSR agonists” (AJINOMOTO CO., INC., priority 2008, dated 2015)
